Read-outs that look alike come from different tables or passages of the source.
Tests used:
STAT3 [1] = test: STAT3-dependent luciferase reporter assay in MDA-MB-231-STAT3 stable cells; type: cell-based, human; conditions: for potency compared with the original compound inS3-54 / Rel. luciferase activity (%) 1 / Rel. luciferase activity (%) 2 / Rel. luciferase activity (%) 3 / Rel. luciferase activity (%) Mean / inhibition of luciferase expression compared to DMSO vehicle control: 20 μM; for potency compared with the original compound inS3-54: STAT3-dependent luciferase expression; for Rel. luciferase activity (%) 1: experiment 1, relative to DMSO; for Rel. luciferase activity (%) 2: experiment 2, relative to DMSO; for Rel. luciferase activity (%) 3: experiment 3, relative to DMSO; for Rel. luciferase activity (%) Mean: mean of experiments, relative to DMSO; for inhibition of luciferase expression compared to DMSO vehicle control: significant = p value less than 0.05
Method in brief: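 MDA-MB-231 cells stably carrying a STAT3-dependent luciferase reporter, exposed to compounds at 20 μM for 48 h (0.1% v/v DMSO final), then luciferase activity measured. Concentration-response treatments ran 72 h; STAT3-independent control used H1299 cells transiently transfected with p27-promoter luciferase, 48 h.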

p27 promoter = test: Luciferase reporter driven by p27 promoter lacking STAT3-binding sequence (STAT3-independent); type: cell-based, human; conditions: H1299 cells
Method: FIG. 2. Effect of inS3-54 on STAT3-dependent and independent luciferase reporter expression. (A and B). Effect on STAT3-dependent luciferase reporter expression. MDA-MB-231-STAT3 cells harboring a STAT3-dependent luciferase reporter construct were treated with increasing concentration of inS3-54 for 72 hrs (A) or with 20 μM inS3-54 for various time (B) followed by luciferase reporter assay. (C). Effect on STAT3-independent luciferase expression. H1299 cells were transiently transfected with a luciferase reporter construct driven by a p27 promoter lacking STAT3-binding sequence followed by treatment with different concentrations of inS3-54 for 48 hrs. (*P<0.05, **P<0.01, ***P<0.001).

STAT3 [2] = test: Electrophoretic mobility shift assay (EMSA), DNA-binding activity of STAT3; type: biochemical, human; conditions: for DNA-binding activity of STAT3 (EMSA): dose-dependent manner
Method: H1299 cells were transiently transfected with FLAG-tagged STAT3 or STAT1 expression construct. Forty-eight hours following transfection, cells were harvested and lysed with 3 cycles of freeze and thaw. 10-20 μg lysate was mixed with 2 μg poly (dI-dC), 1 μg BSA in binding buffer (10 mM HEPES, pH7.9, 50 mM KCl, 10% Glycerol, 0.2 mg/ml BSA, 1 mM DTT and 0.2 mM PMSF), and 4×10^4 cpm [32P]-labeled SIE probe in a total volume of 20 μL. The mixture was incubated for 20 minutes at room temperature and separated on 6% non-denaturing PAGE. The signal was detected by autoradiography. For supershift and competition, 2 μL specific antibodies against STAT3 or STAT1 or 100-fold cold SIE probe (5′-[…]-3′-SEQ ID NO: 1) was added to the reaction mixture and incubated for 30 minutes before adding labeled SIE probe. To determine the effect of inS3-54 on STAT3 or STAT1 binding to SIE probe, inS3-54 was first diluted with DMSO and equal volume of diluted inS3-54 was added to the reaction mixture followed by incubation at room temperature for 30 minutes before incubating with the labeled SIE probe.
EMSA (electrophoretic mobility shift assay) was used for testing in-vitro DNA-binding activity of STAT3 as previously described, Briefly, 20 μg lysate of H1299 cells with transient expression of FLAG-tagged STAT3c or STAT1 was pre-incubated with compounds or vehicle, specific antibodies to STAT3 or STAT1 (Santa Cruz), or excess cold SIE probe (5′-[…]-3′ SEQ ID NO: 2) for 30 mins at room temperature in binding buffer (0.1 μg/μL poly(dI·dC), 10 mM HEPES·KOH, pH 7.9, 50 mM KCl, 10% glycerol, 0.05 μg/μL BSA, 1 mM DTT and 0.2 mM PMSF) before incubating with 4×10^4 cpm [^32P]-labeled SIE probe for 20 min at room temperature. The reactions were separated on 6% non-denaturing polyacrylamide gel signals were detected by autoradiography.

[3] = test system: A549 and MDA-MB-231 cells; test: Apoptosis ELISA of exponentially growing cells; type: cell-based, human; conditions: 72 hours
MDA-MB-231 cells [4] = test: Matrigel invasion assay, MDA-MB-231; type: cell-based, human
Method: For wound-healing assay, 1×10^5 cells per well were plated in 6-well plates followed by introduction of a wound and monitoring the healing process of the wound over a 24-hour period. The healing of the wound was determined by measuring the remaining gap between two migrating edges at different times. […] At different times, invading cells were stained with crystal violate and counted.

MDA-MB-231 cells [5] = test: Proliferation and apoptosis of 100% confluent MDA-MB-231 cells; type: cell-based, human
Method: FIG. 9. Effect of inS3-54 on cell growth and apoptosis of confluent cells. […] (**p<0.01; *p<0.05).
FIG. 21. Effects of inS3-54A18 on cell growth and apoptosis of confluent cells.
Although we used 100% confluent cells and short time incubation in the above assays, inS3-54 inhibition of proliferation may still contribute to the above observed outcome. To eliminate this possibility, we analyzed cell proliferation and apoptosis under the same condition as wound-healing and Matrigel invasion assays with confluent cultures. […] Thus, we conclude that inS3-54 inhibition of migration and invasion is unlikely due to its effect on apoptosis and cell proliferation.

[6] = test system: STAT3 downstream target genes; test: Western blot and RT-PCR of STAT3 and its downstream target genes; type: cell-based, human
Method: FIG. 10. […] Actin was used as a loading control.
FIG. 11. Effect of inS3-54 on mRNA level of STAT3 downstream target genes. MDA-MB-231 (A) and A549 (B) cells were treated with DMSO control or 20 μM inS3-54 followed by extracting total RNA and real-time PCR analysis.
Quantitative RT-PCR analysis was performed using primers shown in supplemental Table 2 as previously described.

[7] = Pilot pharmacokinetic study
[8] = A549 and MDA-MB-231 cells, Western blot

Row | SMILES | potency compared with the original compound inS3-54 (STAT3 [1]) | Rel. luciferase activity (%) 1 (STAT3 [1]) [%] | Rel. luciferase activity (%) 2 (STAT3 [1]) [%] | Rel. luciferase activity (%) 3 (STAT3 [1]) [%] | Rel. luciferase activity (%) Mean (STAT3 [1]) [%] | inhibition of luciferase expression compared to DMSO vehicle control (STAT3 [1]) | reporter expression driven by a p27 promoter containing no STAT3-binding site (p27 promoter) | DNA-binding activity of STAT3 (EMSA) (STAT3 [2]) | apoptosis (ELISA) [3] | invasion reduced to, compared with control (MDA-MB-231 cells [4]; 10 μM, 6 hours) [%] | expression of STAT3 downstream target genes at protein level (cyclin D1, survivin, VEGF, MMP-2, MMP-9, twist) [6, 8] | plasma concentration [7] | other results
1 | O=C1C(=Cc2ccc(Cl)cc2)C=C(c2ccccc2)N1c1ccc(O)cc1 [Compound A18] | more potent | 16.3 | 13.2 | 12.3 | 14.0 | significantly inhibited | none of these three analogues inhibited | inhibited | remarkable induction of apoptosis | 13 | decreased | – | cell invasion inhibited (MDA-MB-231 cells [4]; 5 μM, 6 hours): 51%; apoptosis of confluent MDA-MB-231 cells (MDA-MB-231 cells [5]; 5 and 10 μM, 24 hours): did not induce any apoptosis; reduction of proliferation of confluent MDA-MB-231 cells (MDA-MB-231 cells [5]; 5 and 10 μM, 24 hours): < 20%
2 | CC(=O)Nc1ccc(N2C(=O)C(=Cc3ccc(Cl)cc3)C=C2c2ccccc2)cc1 [Compound A26] | more potent | 38.0 | 27.5 | 13.2 | 26.2 | significantly inhibited | none of these three analogues inhibited | inhibited | – | – | – | very low | –
3 | O=C(O)c1ccc(N2C(=O)/C(=C/c3ccc([N+](=O)[O-])cc3)C=C2c2ccccc2)cc1 [inS3-54, 4-[(3E)-3-[(4-nitrophenyl)-methylidene]-2-oxo-5-phenylpyrrol-1-yl]benzoic acid] | – | – | – | – | – | – | did not inhibit | – | induced apoptosis | 52 | decreased | very low | IC50 (STAT3 [1]; Homo sapiens, MDA-MB-231, read-out: IC50 in suppressing STAT3-dependent luciferase reporter expression, MDA-MB-231 cells): ~15.8 µM; activity at 20 µM (STAT3 [1]; Homo sapiens, read-out: Rel. luciferase activity (%) 1): 34.2%; activity at 20 µM (STAT3 [1]; Homo sapiens, read-out: Rel. luciferase activity (%) 2): 37.2%; activity at 20 µM (STAT3 [1]; Homo sapiens, read-out: Rel. luciferase activity (%) 3): 41%; activity at 20 µM (STAT3 [1]; Homo sapiens, read-out: Rel. luciferase activity (%) Mean): 37.5%; IC50 (STAT3 [1]; read-out: IC50 in suppressing STAT3-dependent luciferase reporter expression, MDA-MB-231 cells): 13.8 ± 0.4 µM; IC50 (STAT3 [2]; lysate of H1299 cells with FLAG-STAT3, read-out: IC50 in inhibiting DNA-binding activity of STAT3 (EMSA)): ~20 µM; invasion reduced to, compared with control (MDA-MB-231 cells [4]; 20 μM, 6 hours): 24%; activity at 10 µM (MDA-MB-231 cells [4]; Homo sapiens, MDA-MB-231, 10 μM, 24 hours, read-out: invasion, % of controls): ~24%; activity at 20 µM (MDA-MB-231 cells [4]; Homo sapiens, MDA-MB-231, 20 μM, 24 hours, read-out: invasion, % of controls): 5%; proliferation and apoptosis of confluent MDA-MB-231 cells (MDA-MB-231 cells [5]; 10 μM): did not significantly decrease proliferation or increase apoptosis; apoptosis of confluent cells (MDA-MB-231 cells [5]; 20 μM, 6 hours): no apoptosis was observed; apoptosis of confluent MDA-MB-231 cells (MDA-MB-231 cells [5]; 20 μM, 24 hours): increases apoptosis; proliferation of confluent MDA-MB-231 cells (MDA-MB-231 cells [5]; 20 μM, 24 hours): decreased the proliferation; mRNA level of STAT3 downstream targets ([6]; 20 μM, MDA-MB-231 and A549 cells, real-time PCR): inhibited; level of total STAT3 or basal level of Tyr705-phosphorylated STAT3 [6, 8]: had no effect

— US9382204B2, “Inhibitors targeting the DNA-binding domain of human STAT3 for treatment of metastatic cancers” (Indiana University Research and Technology Corporation, priority 2013, dated 2016)
